One experiment deals with HeLa cell line. Briefly: Proliferation assay (crystal violet staining). It is filed as cell-based. The conditions noted are these: Homo sapiens, 96 h, 4 days incubation, range 0.001-10 μM, median, read-out: Biological Assay 2: Proliferation assay (HeLa cell line) median IC50. How it is done: Cultivated tumor cells (cells were ordered from ATCC, except HeLa-MaTu and HeLa-MaTu-ADR, which were ordered from EPO-GmbH, Berlin) were plated at a density of 1000 to 5000 cells/well, depending on the growth rate of the respective cell line, in a 96-well multititer plate in 200 μL of their respective growth medium supplemented 10% fetal calf serum. After 24 h, the cells of one plate (zero-point plate) were stained with crystal violet (see below), while the medium of the other plates was replaced by fresh culture medium (200 μL), to which the test substances were added in various concentrations (0 μM, as well as in the range of 0.001-10 μM; the final concentration of the solvent DMSO was 0.5%). The cells were incubated for 4 days in the presence of test substances. Cell proliferation was determined by staining the cells with crystal violet: the cells were fixed by adding 20 μL/measuring point of an 11% glutaric aldehyde solution for 15 min at rt. After three washing cycles of the fixed cells with water, the plates were dried at rt. The cells were stained by adding 100 μL/measuring point of a 0.1% crystal violet solution (pH 3.0). After three washing cycles of the stained cells with water, the plates were dried at rt. The dye was dissolved by adding 100 μL/measuring point of a 10% acetic acid solution. Absorbtion was determined by photometry at a wavelength of 595 nm. The change of cell number, in percent, was calculated by normalization of the measured values to the aborbtion values of the zero-point plate (=0%) and the absorbtion of the untreated (0 μm) cells (=100%). The IC50 values were determined by means of a 4 parameter fit.

For experiment [1], the target named is T1, catalytic domain of human Bub1 (amino acids 704-1085) (Homo sapiens, UniProt O43683).
T1 construct: catalytic domain of human Bub1 (amino acids 704-1085); His6 (N); made in house; host or cells: Hi5 insect cells
Briefly: Bub1 kinase assay (TR-FRET). In kind it is biochemical. The conditions noted are these: 10 μM ATP, 1 μM peptide substrate, median, read-out: Biological Assay 1: Bub1 kinase assay median IC50. From the text: Bub1-inhibitory activities of compounds described in the present invention were quantified using a time-resolved fluorescence energy transfer (TR-FRET) kinase assay which measures phosphorylation of the synthetic peptide Biotin-Ahx-VLLPKKSFAEPG (C-terminus in amide form), purchased from e.g. Biosyntan (Berlin, Germany) by the (recombinant) catalytic domain of human Bub1 (amino acids 704-1085), expressed in Hi5 insect cells with an N-terminal His6-tag and purified by affinity- (Ni-NTA) and size exclusion chromatography.
In a typical assay 11 different concentrations of each compound (0.1 nM, 0.33 nM, 1.1 nM, 3.8 nM, 13 nM, 44 nM, 0.15 μM, 0.51 μM, 1.7 μM, 5.9 μM and 20 μM) were tested in duplicate within the same microtiter plate. To this end, 100-fold concentrated compound solutions (in DMSO) were previously prepared by serial dilution (1:3.4) of 2 mM stocks in a clear low volume 384-well source microtiter plate (Greiner Bio-One, Frickenhausen, Germany), from which 50 nL of compounds were transferred into a black low volume test microtiter plate from the same supplier. Subsequently, 2 μL of Bub1 (the final concentration of Bub1 was adjusted depending on the activity of the enzyme lot in order to be within the linear dynamic range of the assay: typically ˜200 ng/mL were used) in aqueous assay buffer [50 mM Tris/HCl pH 7.5, 10 mM magnesium chloride (MgCl2), 200 mM potassium chloride (KCl), 1.0 mM dithiothreitol (DTT), 0.1 mM sodium ortho-vanadate, 1% (v/v) glycerol, 0.01% (w/v) bovine serum albumine (BSA), 0.005% (v/v) Trition X-100 (Sigma), 1× Complete EDTA-free protease inhibitor mixture (Roche)] were added to the compounds in the test plate and the mixture was incubated for 15 min at 22° C. to allow pre-equilibration of the putative enzyme-inhibitor complexes before the start of the kinase reaction, which was initiated by the addition of 3 μL 1.67-fold concentrated solution (in assay buffer) of adenosine-tri-phosphate (ATP, 10 μM final concentration) and peptide substrate (1 μM final concentration). The resulting mixture (5 μL final volume) was incubated at 22° C. during 60 min, and the reaction was stopped by the addition of 5 μL of an aqueous EDTA-solution (50 mM EDTA, in 100 mM HEPES pH 7.5 and 0.2% (w/v) bovine serum albumin) which also contained the TR-FRET detection reagents (0.2 μM streptavidin-XL665 [Cisbio Bioassays, Codolet, France] and 1 nM anti-phosho-Serine antibody [Merck Millipore, cat. #35-001] and 0.4 nM LANCE EU-W1024 labeled anti-mouse IgG antibody [Perkin-Elmer, product no. AD0077, alternatively a Terbium-cryptate-labeled anti-mouse IgG antibody from Cisbio Bioassays can be used]). The stopped reaction mixture was further incubated 1 h at 22° C. in order to allow the formation of complexes between peptides and detection reagents. Subsequently, the amount of product was evaluated by measurement of the resonance energy transfer from the Eu-chelate-antibody complex recognizing the Phosphoserine residue to the streptavidin-XL665 bound to the biotin moiety of the peptide. To this end, the fluorescence emissions at 620 nm and 665 nm after excitation at 330-350 nm were measured in GTR-FRET plate reader, e.g. a Rubystar or Pherastar (both from BMG Labtechnologies, Offenburg, Germany) or a Viewlux (Perkin-Elmer) and the ratio of the emissions (665 nm/622 nm) was taken as indicator for the amount of phosphorylated substrate. The data were normalised using two sets of (typically 32-) control wells for high- (=enzyme reaction without inhibitor=0%=Minimum inhibition) and low- (=all assay components without enzyme=100%=Maximum inhibition) Bub1 activity. IC50 values were calculated by fitting the normalized inhibition data to a 4-parameter logistic equation (Minimum, Maximum, IC50, Hill; Y=Max+(Min−Max)/(1+(X/IC50)Hill)).
(In TR-FRET formats the signal depends on donor and acceptor labels being close together.)

Where only a bound is given, the exact number is not on record here.

Drawing on US9416125B2, “Substituted cycloalkenopyrazoles as BUB1 inhibitors for the treatment of cancer” (BAYER PHARMA AKTIENGESELLSCHAFT, priority 2012, dated 2016), this text covers IC50 for two compounds.

T1 sequence (O43683 704-1085): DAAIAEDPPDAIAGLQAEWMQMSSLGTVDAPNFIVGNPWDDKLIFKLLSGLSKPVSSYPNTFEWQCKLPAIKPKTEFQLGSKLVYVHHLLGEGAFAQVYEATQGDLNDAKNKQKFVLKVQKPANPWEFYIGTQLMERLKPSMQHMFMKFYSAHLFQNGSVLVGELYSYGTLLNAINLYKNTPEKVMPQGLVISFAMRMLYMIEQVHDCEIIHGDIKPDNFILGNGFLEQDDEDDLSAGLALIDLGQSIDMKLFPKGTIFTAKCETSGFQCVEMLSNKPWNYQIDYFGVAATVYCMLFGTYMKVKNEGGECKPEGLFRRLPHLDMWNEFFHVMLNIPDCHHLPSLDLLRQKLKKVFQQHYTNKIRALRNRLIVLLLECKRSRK

For the compound `CCOc1cc(F)c(Cn2nc(-c3ncc(OCCO)c(Nc4ccncc4)n3)c3c2CCC3)c(F)c1` [Example 2-11-2, 2-({2-[1-(4-ethoxy-2,6-difluoro-benzyl)-1,4,5,6-tetrahydrocyclopenta [c]pyrazol-3-yl]-4-(pyridin-4-ylamino)pyrimidin-5-yl}oxy) ethanol], the figures for the IC50 (with HeLa cell line; in experiment [1]) were 4000 nM and 4 nM, respectively.

Turning to `CS(=O)(=O)CCOc1cnc(-c2nn(Cc3ccccc3F)c3c2CCC3)nc1Nc1ccncc1C(N)=O` [Example 2-13-1, 4-({2-[1-(2-fluorobenzyl)-1,4,5,6-tetrahydrocyclopenta[c]pyrazol-3-yl]-5-[2-(methylsulfonyl)ethoxy]pyrimidin-4-yl}amino)nicotinamide], the results for the IC50 (in the experiment on HeLa cell line; in experiment [1]) were at least 10000 nM and 30 nM, respectively.
